From patent publication US20170226541A1, “METHOD OF IMPROVING SOLVENT TOLERANCE IN MICROBES” (Nanyang Technological University, priority 2014, published 2017)
Entries after “also recorded” stand apart in the source; their conditions may differ.

Key:
[1] = test system: E. coli K12; experiment: Butanol challenge, microdilution growth test; type: cell-based, Escherichia coli K12 (ATTC 10798); conditions: for protective effect on growth under butanol challenge: 0 to 3.5% (v/v) butanol, DSSN+ 5 μM
Description: Butanol challenge was assessed by using a microdilution format modified standard toxicity test based on the method described by Wiegand et al (I. Wiegand, K. Hilpert, R. E. W. Hancock, Nat. Protocols 2008, 3, 163-175). Cultures of E. coli K12 (ATTC 10798) grown in LB broth were harvested at late log phase and diluted to 1×10^6 cfu ml. One hundred μl of the suspension were inoculated into 96 well plates with each well containing an equal volume of LB broth and spiked with the following concentrations of 1-butanol: […] in a 96 well plate achieving a final inoculum density of 5×10^5 and a final butanol concentration of 0, 0.85, 1.75, and 3.5% (v/v). Tests were run in triplicate with and without COE1-5C (10 μM) and DSSN+ (5 μM) using the appropriate sterility and growth controls. Specific growth rates were expressed as an average of all replicates.

[2] = Single molecule tracking of DHPE-Atto647N in supported lipid bilayer; design: species or system E. coli; conditions: for effect on MSD / bilayer stiffness (comparison of OPV COEs): no butanol, OPV COE final concentration 1 μM (FIG. 4)
Description: SLB formation, MIM treatment: A 3 mg/ml chloroform solution of total E. coli lipid extract (Avanti Polar Lipids, Alabaster, Ala.) was mixed with DHPE-Atto647N (Atto-Tec, Slegen, Germany) to 0.001% mol in a round bottom flask produce large unilamellar vesicles (LUVs). Chloroform was evaporated using a rotary evaporator for 2 hours at 65° C. The lipid film was resuspended in 10 mM HEPES and 150 mM NaCl, pH 7.4, vortexed for 10 min and sonicated in a bath sonicator until a clear solution was obtained. One hundred μl of such a prepared LUVs solution were deposited in a custom made plastic holder, glued to a coverslip, and incubated for 60 min at 65° C. Prior to use, coverslips were cleaned by 30 min sonication in 2% Hellmanex (Hellma Analytics, Millheim, Germany), followed by thorough rinsing with deionized (DI) water. Un-fused vesicles were removed by 10× washing with 400 μl of 10 mM Hepes, 150 mM NaCl, 3 mM EDTA, pH 7.4 buffer. Calculated volumes of COE1-5C, DSSN+, DSBN+ and 4F-DSBN+ (0.1 mM) were added directly to the chamber to final concentrations of 1 μM, mixed and allowed to equilibrate for 5 min prior to measurement.
Data acquisition: For total internal reflection microscopy (TIRF) imaging, a modified Nikon Eclipse TE2000U TIRF setup was used, equipped with a 100× 1.49NA objective (Nikon, Japan). Laser light from a 638 nm LED laser was passed through a 660LP dichromic mirror (Chroma Technology Corp, Bellows Falls, Vt.) and used for sample illumination under the TIR angle. Emitted light was filtered using a 738/75 […] and collected on a back-illuminated EMCCD camera chip (Andor iXON897, 512x512px, Andor Technology, USA). For each condition, 4 to 6 datasets of 4000 frames at 97 fps were collected from different regions of the membrane. Immobile particles and contaminants were bleached prior to measurement.
Data analysis: A Mosaic Particle Tracker ImageJ plugin was used to localize the centroid of single molecule signals and link them to trajectories. TrackArt software was used to filter spurious trajectories and extract mean square displacements and diffusion coefficients. […] The slowly-diffusing population occurs most likely due to marker interaction with the surface.

[3] = test system: E. coli K12 cells; experiment: Modified microbial adhesion to hydrocarbon (MATH) test; type: cell-based, Escherichia coli K12
Description: To test for cell surface modifications brought about by COE1-5C that might affect hydrophobicity, E. coli K12 cells treated with COE1-5C (10 μM) were tested for their affinity for either the butanol or aqueous phase against an untreated control. The tendency of E. coli to partition into the butanol phase or remain in the aqueous phase was assessed optically by measuring the reduction in turbidity (OD600) of tubes containing a saturated mixture of butanol (1.5 ml) and buffer (18.5 ml). The tests were carried out with appropriate blanks and both positive and negative controls. MATH tests were carried out in triplicate and expressed as the quotient of the difference between the OD600 at the start and […] and the OD600 at the […].

[4] = test system: E. coli K12; experiment: Toxicity tests (minimum inhibitory concentration); type: cell-based, Escherichia coli K12
Excerpt: Relative toxicities of DSSN+ and DSBN+ are positively correlated with the extent of mismatch between the length of the hydrophobic molecular backbone and bilayer thickness. Membrane insertion of the shorter, 3-ringed DSBN+ thinned the membrane more than the 4-ringed DSSN+, perturbing it to a greater extent, and was correspondingly more toxic. In this example, the objective is to mitigate the toxic effect of organic solvents on biological membranes. To avoid synergistic membrane disruption in systems containing both MIMs and solvents, MIMs that were the least likely to perturb membranes, that is, DSSN+×(which was previously shown to maintain the natural thickness of membranes) and COE1-5C, were selected. The insertion of COE1-5C, whose molecular length (≈5 nm) is greater than the thickness of the bilayer (≈4 nm), would be expected to initiate membrane perturbation because of hydrophobic mismatch. However, positive hydrophobic mismatch perturbs lipid bilayers less than instances of negative mismatch—where the length of the insertion molecules is shorter than the thickness of the bilayer. The experimental concentration of COE1-5C used in this study (10 μM) is much lower than its minimum inhibitory concentration (MIC). […] This is considerably greater than for DSSN+, DSBN+ and 4F-DSBN+, further supporting the hypothesis that membrane thinning is a potent toxicity determinant. […]

[5] = test system: E. coli K12; experiment: Membrane polarisation (DiSC3 fluorescence); type: cell-based, Escherichia coli K12; conditions: 10 μM COE1-5C; 0, 1.75 or 3.5% (v/v) 1-butanol
Description: Cultures of E. coli K12 grown in LB broth were harvested at late log phase and diluted to 5×10^5 cfu ml. Cells were centrifuged at 5000×g for 5 min and washed in phosphate buffered saline (PBS). The process was repeated three times and the pellet finally resuspended in PBS. Two-hundred μl of the cell suspension were inoculated into 96 well plates, 2 μL of the depolarization detecting probe 3,3-diethylthiodicarbocyanine (DiSC3) iodide was added to the treatment wells and to half of these, 10 μM COE1-5C. The cells were allowed to incubate for around 30 min and the fluorescence intensity at 670 nm was measured after excitation at 620 nm until a stable base line was reached. Zero, 1.75, or 3.5% (v/v) 1-butanol was added to the test well and the increase in fluorescence intensity was taken at 1 min intervals (Ex=λ620, Em=Δ670) as a bottom reading with optimal gain to determine the degree of membrane polarization. Buffer, dye, and COE1-5C blanks were monitored and the data corrected accordingly.

**Q.** Which “protective effect on growth under butanol challenge” value ([1]; COE1-5C 10 μM) does the source give for `C[N+](C)(C)CCCCCCN(CCCCCC[N+](C)(C)C)c1ccc(/C=C/c2ccc(/C=C/c3ccc(/C=C/c4ccc(N(CCCCCC[N+](C)(C)C)CCCCCC[N+](C)(C)C)cc4)cc3)cc2)cc1.[I-].[I-].[I-].[I-]` [DSSN+, reference compound] here?
**A.** no protective effect; also recorded: no growth of E. coli K12 was observed

**Q.** What about the “protective effect on growth under butanol challenge” value ([1]; COE1-5C 10 μM, listed as DSSN^+) of the same compound?
**A.** do not

**Q.** And the “effect on MSD / bilayer stiffness (comparison of OPV COEs)” value (from here on “effect on MSD / bilayer stiffness”) [2]?
**A.** to a lesser degree than the five-ringed structure

**Q.** What does the source list for `C[N+](C)(C)CCCCCCN(CCCCCC[N+](C)(C)C)c1ccc(C=Cc2ccc(C=Cc3ccc(C=Cc4ccc(C=Cc5ccc(N(CCCCCC[N+](C)(C)C)CCCCCC[N+](C)(C)C)cc5)cc4)cc3)cc2)cc1.[I-].[I-].[I-].[I-]` [COE1-5C]?
**A.** protective effect on growth under butanol challenge ([1]; COE1-5C 10 μM): increased the growth rate of E. coli K12 in all instances of butanol challenge; also recorded: mitigates the toxic effect of butanol; growth rate of treated cells relative to untreated cells (fold) ([1]; 3.5% v/v butanol): threefold increase; growth rate relative to a control ([1]; 3.5% v/v butanol): about 13%; specific growth rate ([1]; 3.5% v/v butanol, COE1-5C 10 μM, listed as conjugated oligo-electrolyte): 0.095 h⁻¹; growth rate of treated cells relative to untreated cells (fold) ([1]; 3.5% v/v butanol, listed as OPV COE): three times; growth rate of treated cells relative to untreated cells (fold) ([1]; 3.5% v/v butanol, listed as conjugated oligo-electrolyte): 3; tendency of treated cells to partition into the butanol phase relative to untreated cells ([3]; 10 μM COE1-5C): less than half that of untreated cells; MATH value ([3]; E. coli K12 treated with 10 μM COE1-5C, butanol/buffer partitioning, OD600): 0.17 (±0.027); reduction in MSD of membrane marker ([2]; 0% (v/v) butanol): 62%; diffusion coefficients in model membranes versus control ([2]; 10 μM COE1-5C, 0.85, 1.75, 3.50% v/v butanol (FIG. 2)): much lower than in control systems; reduction in MSD of membrane marker ([2]; 0.85% (v/v) butanol): 38%; reduction in MSD of membrane marker ([2]; 1.75% (v/v) butanol): 22%; reduction in MSD of membrane marker ([2]; 3.5% v/v butanol): 15%; effect on MSD / bilayer stiffness (comparison of OPV COEs) [2]: increased bilayer stiffness to the greatest degree; minimum inhibitory concentration (MIC) [4]: 128 µM; membrane depolarization by butanol [5]: mitigated the depolarization efficiency of butanol

**Q.** Which “effect on MSD / bilayer stiffness” value [2] does the source give for `C[N+](C)(C)CCCCCCN(CCCCCC[N+](C)(C)C)c1ccc(/C=C/c2c(F)c(F)c(/C=C/c3ccc(N(CCCCCC[N+](C)(C)C)CCCCCC[N+](C)(C)C)cc3)c(F)c2F)cc1.[I-].[I-].[I-].[I-]` [4F-DSBN+, reference compound] here?
**A.** stiffened the least amount

**Q.** With `C[N+](C)(C)CCCCCCN(CCCCCC[N+](C)(C)C)c1ccc(/C=C/c2ccc(/C=C/c3ccc(N(CCCCCC[N+](C)(C)C)CCCCCC[N+](C)(C)C)cc3)cc2)cc1.[I-].[I-].[I-].[I-]` [DSBN+, reference compound] as the compound, how does the “effect on MSD / bilayer stiffness” value [2] read?
**A.** to a lesser degree than the five-ringed structure
